For seven compounds, mortality results are on record in US8633134B2, “Substituted amidine compounds for combating animal pests” (priority 2008, dated 2014).

Where only a bound is given, the exact number is not on record here.

What all share (assay type): in vivo
In data set [1] the test system is Mediterranean Fruitfly (Ceratitis capitata). Briefly: Mediterranean fruitfly microtiter plate diet test. The settings on record: 120 h. As to the method: For evaluating control of Mediterranean fruitfly (Ceratitis capitata) the test unit consisted of microtiter plates containing an insect diet and 50-80 C. capitata eggs. The compounds were formulated using a solution containing 75% v/v water and 25% v/v DMSO. Different concentrations of formulated compounds were sprayed onto the insect diet at 5 μl, using a custom built micro atomizer, at two replications.
After application, microtiter plates were incubated at about 28±1° C. and about 80±5% relative humidity for 5 days. Egg and larval mortality was then visually assessed.

The subject of data set [2] is yellowfever mosquito larvae (Aedes aegypti). As to the kind of experiment: Larval mosquito water treatment assay. The settings on record: 120 h, 5 DAT (days after treatment), first tier test, in comparison with untreated controls. As to the method:
The assay was conducted in 6-well polystyrene plates using one plate per treatment rate. Stock solutions were prepared at 100 and 1000 ppm. Screen rates were at 1 and 10 ppm. Distilled water was added to each well, control wells were treated with acetone. Temephos (Abate technical) was used as the standard at 0.1 ppm. Ten late thirdinstar yellowfever mosquito larvae (Aedes aegypti) in water were added to each well. One drop of liver powder solution (6 g in 100 ml distilled water) was added to each well as a food source daily. Plates were maintained at 22-25° C. and 25-50% RH (relative humidity) and observed daily for dead larvae and pupae at 1, 2, 3, and 5 days after treatment. Dead larvae and all pupae were removed daily. Mortality was defined as an insect incapable of coordinated movement when agitated.

The subject of data set [3] is Vetch Aphid (Megoura viciae). Briefly: Vetch aphid leaf disk microtiter plate test. The settings on record: foliar, 120 h. As to the method:
For evaluating control of vetch aphid (Megoura viciae) through contact or systemic means the test unit consisted of 24-well-microtiter plates containing broad bean leaf disks.
The compounds were formulated using a solution containing 75% v/v water and 25% v/v DMSO. Different concentrations of formulated compounds were sprayed onto the leaf disks at 2.5 μl, using a custom built micro atomizer, at two replications. After application, the leaf disks were air-dried and 5-8 adult aphids placed on the leaf disks inside the microtiter plate wells. The aphids were then allowed to suck on the treated leaf disks and incubated at about 23±1° C. and about 50±5% relative humidity for 5 days. Aphid mortality and fecundity was then visually assessed.

The subject of data set [4] is Cotton Aphid (Aphis gossypii). Briefly: Cotton aphid foliar spray test. The note with it: 120 h, after 5 days, in comparison with untreated controls. An excerpt:
(§1) The active compounds were formulated in cyclohexanone as a 10,000 ppm solution supplied in tubes. The tubes were inserted into an automated electrostatic sprayer equipped with an atomizing nozzle and they served as stock solutions for which lower dilutions were made in 50% acetone:50% water (v/v). A nonionic surfactant (Kinetic®) was included in the solution at a volume of 0.01% (v/v).
Cotton plants at the cotyledon stage were infested with aphids prior to treatment by placing a heavily infested leaf from the main aphid colony on top of each cotyledon. Aphids were allowed to transfer overnight to accomplish an infestation of 80-100 aphids per plant and the host leaf was removed. The infested plants were then sprayed by an automated electrostatic plant sprayer equipped with an atomizing spray nozzle. The plants were dried in the sprayer fume hood, removed from the sprayer, and then maintained in a growth room under fluorescent lighting in a 24-hr photoperiod at 25° C. and 20-40% relative humidity. Aphid mortality on the treated plants, relative to mortality on untreated control plants, was determined after 5 days.

Data set [5] has as its system Silverleaf Whitefly (Bemisia argentifolii). As to the kind of experiment: Silverleaf whitefly cotton plant spray test. The settings on record: 72 h, 3 days after treatment, in comparison with untreated controls.
Text: as §1
Cotton plants at the cotyledon stage (one plant per pot) were sprayed by an automated electrostatic plant sprayer equipped with an atomizing spray nozzle. The plants were dried in the sprayer fume hood and then removed from the sprayer. Each pot was placed into a plastic cup and about 10 to 12 whitefly adults (approximately 3-5 days old) were introduced. The insects were collected using an aspirator and a nontoxic Tygon® tubing connected to a barrier pipette tip. The tip, containing the collected insects, was then gently inserted into the soil containing the treated plant, allowing insects to crawl out of the tip to reach the foliage for feeding. Cups were covered with a reusable screened lid. Test plants were maintained in a growth room at about 25° C. and about 20-40% relative humidity for 3 days, avoiding direct exposure to fluorescent light (24 hour photoperiod) to prevent trapping of heat inside the cup. Mortality was assessed 3 days after treatment, compared to untreated control plants.

Data set [6] concerns Southern Armyworm (Spodoptera eridania). Briefly: Southern armyworm lima bean foliar spray test. The settings on record: 96 h. As to the method:
as §1
(§2) Lima bean plants (variety Sieva) were grown 2 plants to a pot and selected for treatment at the 1st true leaf stage. Test solutions were sprayed onto the foliage by an automated electrostatic plant sprayer equipped with an atomizing spray nozzle. The plants were dried in the sprayer fume hood and then removed from the sprayer. Each pot was placed into perforated plastic bags with a zip closure. About 10 to 11 armyworm larvae were placed into the bag and the bags zipped closed. Test plants were maintained in a growth room at about 25° C. and about 20-40% relative humidity for 4 days, avoiding direct exposure to fluorescent light (24 hour photoperiod) to prevent trapping of heat inside the bags. Mortality and reduced feeding were assessed 4 days after treatment, compared to untreated control plants.

Data set [7] deals with Orchid Thrips (Dichromothrips corbetti). Briefly: Orchid thrips floral-immersion test. The note with it: 96 h. As to the method:
Dichromothrips corbetti adults used for bioassay are obtained from a colony maintained continuously under laboratory conditions. For testing purposes, the test compound is diluted to a concentration of 300 ppm (wt compound: vol diluent) in a 1:1 mixture of acetone:water (vol:vol), plus 0.01% vol/vol Kinetic® surfactant.
Thrips potency of each compound is evaluated by using a floral-immersion technique. Plastic petri dishes are used as test arenas. All petals of individual, intact orchid flowers are dipped into treatment solution and allowed to dry. Treated flowers are placed into individual petri dishes along with 10-15 adult thrips. The petri dishes are then covered with lids. All test arenas are held under continuous light and a temperature of about 28° C. for duration of the assay. After 4 days, the numbers of live thrips are counted on each flower, and along inner walls of each petri dish. The level of thrips mortality is extrapolated from pre-treatment thrips numbers.

The subject of data set [8] is Tobacco Budworm (Heliothis virescens). Briefly: Tobacco budworm cotton plant foliar spray test. The settings on record: 96 h. As to the method: as §1
as §2, with “Cotton” for “Lima bean”, “plants” for “plants (variety Sieva)”, “cotyledon” for “1st true leaf”, “budworm” for “armyworm”

Data set [9] has as its system Diamond Back Moth (Plutella xylostella). As to the kind of experiment: Diamond back moth leaf dip test. The settings on record: foliar, 120 h. How it is done: (§3) The active compound is dissolved at the desired concentration in a mixture of 1:1 (vol:vol) distilled water:acteon. The test solution is prepared at the day of use and in general at concentrations of […].
Leaves of Chinese cabbage were dipped in test solution and air-dried. Treated leaves were placed in petri dished lined with moist filter paper. Mortality was recorded 24, 72, and 120 hours after treatment.

The test system of data set [10] is Boll Weevil (Anthonomus grandis). Briefly: Boll weevil microtiter plate diet test. The settings on record: 120 h. As to the method: For evaluating control of boll weevil (Anthonomus grandis) the test unit consisted of 24-well-microtiter plates containing an insect diet and 20-30 A. grandis eggs.
The compounds were formulated using a solution containing 75% v/v water and 25% v/v DMSO. Different concentrations of formulated compounds were sprayed onto the insect diet at 20 μl, using a custom built micro atomizer, at two replications. After application, microtiter plates were incubated at about 23±1° C. and about 50±5% relative humidity for 5 days. Egg and larval mortality was then visually assessed.

Data set [11] has as its system Western Flower Thrips (Frankliniella occidentalis). As to the kind of experiment: Western flower thrips glass vial / leaf disc test. The note with it: 300 ppm; 2 DAT; in comparison with untreated controls. As to the method:
Serial dilutions of each technical grade AI were made in pure acetone. 0.5 ml of the treatment solution was deposited into the bottom of a glass vial (scintillation vial). The cap was screwed back onto the vial and inverted for about five seconds. The cap was subsequently removed and the vial laid on its side and rolled constantly, on a hot dog roller, until all the acetone had flashed off and the inner surface of the vial was dry. Cotton leave discs were also dipped simultaneously into the treatment solutions and allowed to dry. After the vials were dried, the leave discs are placed into the vials to serve as a food/water source for the thrips. Each treatment was replicated 5-fold.
Western flower thrips were aspirated into the vials, approximately 5 larvae or adults/vial. Following treatment application the vials were held in a holding room under fluorescent light and constant 26° C. Thrips mortality was assessed at 2 DAT (days after treatment), counting all thrips both dead and alive.

Data set [12] concerns Cowpea Aphid (Aphis craccivora). Briefly: Cowpea aphid spray test on potted cowpea plants. The note with it: population reduction assessed after 24, 72, and 120 hours, in comparison with untreated controls. How it is done:
as §3
Potted cowpea plants colonized with approximately 100-150 aphids of various stages were sprayed after the pest population has been recorded. Population reduction was assessed after 24, 72, and 120 hours.

The term mortality denotes the share of the test organisms that died. Lower therefore signals more survivors. For the compound `CN=C(NO)c1ccc(C2=NOC(c3cc(Cl)cc(Cl)c3)(C(F)(F)F)C2)cc1C` (stereo not shown) [Compound 1-1, 4-[5-(3,5-Dichloro-phenyl)-5-trifluoromethyl-4,5-dihydro-isoxazol-3-yl]-N-hydroxy-2,N′-dimethyl-benzamidine], the mortality at 2500 ppm in data set [1], in [3], in data set [8] and in data set [10] was ≥ 75% each time. In data set [2], the mortality at 1 ppm is ≥ 75%. Besides, the mortality at 300 ppm in data set [4], in data set [5], in [6], in data set [7] and in [9] was ≥ 75% throughout.
For the compound `Cc1cc(C2=NOC(c3cc(Cl)cc(Cl)c3)(C(F)(F)F)C2)ccc1C(=NO)N(C)C` (stereo not shown) [Compound 1-2], the mortality entry in data set [11] is recorded as “at least 75%”.
With `Cc1cc(C2=NOC(c3cc(Cl)cc(Cl)c3)(C(F)(F)F)C2)ccc1C(=NCC(F)(F)F)NC(=O)CO` (stereo not shown) [Compound 1-7, 4-[5-(3,5-Dichloro-phenyl)-5-trifluoromethyl-4,5-dihydro-isoxazol-3-yl]-N-hydroxyacetyl-2-methyl-N′-(2,2,2-trifluoro-ethyl)-benzamidine], the mortality at 2500 ppm in [1], in [8] and in data set [10] was ≥ 75% throughout. The mortality at 300 ppm in data set [6], in data set [7] and in data set [9] was ≥ 75% each time.
`Cc1cc(C2=NOC(c3cc(Cl)cc(Cl)c3)(C(F)(F)F)C2)ccc1C(=NCc1ccccn1)NO` (stereo not shown) [Compound 1-8, 4-[5-(3,5-Dichloro-phenyl)-5-trifluoromethyl-4,5-dihydro-isoxazol-3-yl]-N-hydroxy-2-methyl-N′-pyridin-2-ylmethyl-benzamidine]: the mortality at 300 ppm in [12], in data set [4], in data set [6], in [7] and in data set [9] was ≥ 75% each time. Moreover, the mortality at 2500 ppm in [1], in data set [3], in data set [8] and in [10] was ≥ 75% each time.
Take `CC(=O)N(Cc1ccccn1)C(C(=O)C=NO)c1ccc(C2=NOC(c3cc(Cl)cc(Cl)c3)(C(F)(F)F)C2)cc1C` (stereo not shown) [Compound 1-10, N-{{4-[5-(3,5-dichloro-phenyl)-5-trifluoromethyl-4,5-dihydro-isoxazol-3-yl]-2-methyl-phenyl}-hydroxyiminoacetyl-methyl}-N-pyridin-2-ylmethyl-acetamide]: the mortality at 300 ppm in data set [12], in [6], in data set [7] and in [9] was ≥ 75% in each case. Moreover, the mortality at 2500 ppm in data set [1], in data set [3], in data set [8] and in data set [10] was ≥ 75% each time.
With `Cc1nc(-c2ccc(C3=NOC(c4cc(Cl)cc(Cl)c4)(C(F)(F)F)C3)cc2C)no1` (stereo not shown) [Compound 9-2, 3-{4-[5-(3,5-Dichloro-phenyl)-5-trifluoromethyl-4,5-dihydro-isoxazol-3-yl]-2-methyl-phenyl}-5-methyl-[1,2,4]oxadiazole], the mortality at 2500 ppm in data set [1], in data set [8] and in [10] was ≥ 75% in each case. Also, the mortality at 300 ppm in data set [6] and in [9] was ≥ 75% each time.
As for `Cc1nc(-c2ccc(C3=NOC(c4cc(Cl)cc(Cl)c4)(C(F)(F)F)C3)cc2CC(F)(F)F)no1` (stereo not shown) [Compound 9-4, 3-{4-[5-(3,5-Dichloro-phenyl)-5-trifluoromethyl-4,5-dihydro-isoxazol-3-yl]-2-trifluoroethyl-phenyl}-5-methyl-[1,2,4]oxadiazole], the mortality at 2500 ppm in data set [1], in data set [8] and in data set [10] was ≥ 75% throughout. Also, the mortality at 300 ppm in data set [6] is ≥ 75%.
